One test concerns the target T1, RET-CCDC6 (Homo sapiens, UniProt P07949).
T1 construct: CCDC6 (fusion partner, UniProt Q16204); purchased Reaction Biology Corporation (contract assay; enzyme is the CRO's); the other entry of the earlier key: CCDC6 (Q16204, Coiled-coil domain-containing protein 6)
T1 sequence (P07949 with tags, fused parts or gaps): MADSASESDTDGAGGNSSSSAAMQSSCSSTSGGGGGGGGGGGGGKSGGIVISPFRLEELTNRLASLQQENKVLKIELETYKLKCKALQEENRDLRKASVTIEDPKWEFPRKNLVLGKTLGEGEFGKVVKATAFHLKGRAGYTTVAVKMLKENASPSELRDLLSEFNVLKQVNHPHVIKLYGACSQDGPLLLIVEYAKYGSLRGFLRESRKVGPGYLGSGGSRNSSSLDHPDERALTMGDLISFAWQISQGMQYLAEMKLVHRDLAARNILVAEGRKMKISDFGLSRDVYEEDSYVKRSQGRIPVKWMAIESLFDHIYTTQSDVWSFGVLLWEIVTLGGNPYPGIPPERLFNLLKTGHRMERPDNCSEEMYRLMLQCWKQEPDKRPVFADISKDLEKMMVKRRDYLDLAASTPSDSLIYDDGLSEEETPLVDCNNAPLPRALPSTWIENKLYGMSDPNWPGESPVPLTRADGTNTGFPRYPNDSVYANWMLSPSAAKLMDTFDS
As to the kind of experiment: Biochemical IC50 of RET-CCDC6 fusion (33P-ATP filter binding, Reaction Biology). Here is the method: (§1) For detailed test methods, the following references were referred to: T. Anastassiadis, S. W. Deacon, K. Devarajan, H. Ma, J. R. Peterson. […] Nat. Biotech.
(§2) The compounds of the present invention were dissolved in dimethyl sulfoxide (DMSO) to prepare 10 mM stock solutions, and ten different doses by 3-fold serial dilutions from 10 mM were prepared. The ATP concentration used in this determination was 1 μM.
(§3) Base reaction buffer: 20 mM 4-(2-hydroxyethyl)-1-piperazineethanesulfonic acid buffer (Hepes, pH 7.5), 10 mM magnesium chloride, 1 mM ethylene glycol-bis(3-aminoethylether)-N,N,N′,N′-tetraacetic acid (EGTA), 0.02% Brij™-35 (purchased from ThermoFisher Scientific), 0.02 mg/mL bovine serum albumin (BSA), 0.1 mM sodium orthovanadate (Na3VO4), 2 mM dithiothreitol (DTT), 1% dimethyl sulfoxide (DMSO).
(§4) a) adding the corresponding substrate to a freshly prepared base reaction buffer;
(§5) b) adding necessary cofactors;
(§6) c) adding kinase and shake gently;
(§7) d) adding the compounds in DMSO using Acoustic technology (Echo550; nanoliter range) and incubating at room temperature for 20 minutes;
(§8) e) adding 33P-ATP (specific activity 10 μCi/μL) to initiate the reaction;
(§9) f) incubating the kinase reaction at room temperature for 2 hours;
(§10) g) spotting the resultant of reaction on P81 ion exchange paper (purchased from Whatman);
(§11) h) detecting kinase activity by filter binding assay.
(§12) IC50 values were generated using Prism (GraphPad software).

A further test deals with T2, RET(V804M) mutant (Homo sapiens, UniProt P07949, V804M).
T2 construct: purchased Reaction Biology Corporation (contract assay; enzyme is the CRO's)
Kind of test: Biochemical IC50 of RET(V804M) mutant (33P-ATP filter binding, Reaction Biology). How it is done:
as §1, §2, §3, §4, §5, §6, §7, §8, §9, §10, §11, §12

The target of the next test is T3, wild-type RET kinase (Homo sapiens, UniProt P07949).
T3 construct: purchased Reaction Biology Corporation (contract assay; enzyme is the CRO's)
As to the kind of experiment: Biochemical IC50 of wild-type RET kinase (33P-ATP filter binding, Reaction Biology). Here is the method: as §1, §2, §3, §4, §5, §6, §7, §8, §9, §10, §11, §12

The test system of test [1] is Phospho-RET in LC-2/ad lung cancer cells. Kind of test: Phospho-RET ELISA in LC-2/ad tumor cells. Particulars: Homo sapiens, 1 h, read-out: Cell IC50 Phospho-RET. The test is classed as cell-based. How it is done: (§13) The compounds of the present invention were dissolved in dimethyl sulfoxide (DMSO) to prepare 10 mM stock solutions, and ten different doses by 3-fold serial dilutions from 10 mM were prepared. An ELISA assay format was used in the test.
(§14) PathScan® Phospho-Ret (panTyr) and p44/42 MAPK (Thr202/Tyr204) (ERK) Sandwich ELISA kits were purchased from Cell Signaling Technology. The LC-2/ad lung cancer cell line was purchased from Sigma-Aldrich. […] The medium was supplemented with 10% fetal bovine serum (FBS), 100 μg/mL penicillin and 100 μg/mL streptomycin, and the cultures were maintained at 37° C. in a humidified atmosphere of 5% CO2 and 95% air.
(§15) a) 1.5×10^4 LC-2/ad cells were seeded in the wells of a 96-well tissue culture plate overnight;
(§16) b) the cells were treated with DMSO or the test compound in DMSO (the initial concentration was 1 μM, and ten doses by 3-fold serial dilutions) for one hour;
(§17) The plate was shaken for 1 minute, then placed on a rocking platform at 4° C. for 30 minutes;
(§18) d) 80 μL/well of lysate was added to the appropriate wells of each ELISA plate and the plate was incubated overnight at 4° C. on a rocking platform;
(§19) e) the contents of the plate were discarded into a container and the wells were washed for four times with 200 μL/well of 1×ELISA wash buffer;
(§20) f) 100 μL of reconstituted Phospho-Ret(panTyr) or Phospho-ERK(Thr202/Tyr204; p44/42MAPK) detection antibody was added to the appropriate wells and the plate was incubated at 37° C. for 1 hour;
(§21) g) the washing procedure was repeated and 100 μL of reconstituted HRP-linked secondary antibody was added to each well of two plates and the plates were incubated at 37° C. for 30 minutes;
(§22) h) the washing procedure was repeated, 100 μL of TMB substrate was added to each well, and the plates were incubated at 37° C. for 45 minutes;
(§23) i) 100 μL of STOP solution was added to each well and the plate was gently shaken for a few seconds.
Background: In an ELISA, binding on a coated surface is turned into a signal by an enzyme label.

Test [2] relates to Phospho-ERK in LC-2/ad lung cancer cells. Kind of test: Phospho-ERK ELISA in LC-2/ad tumor cells. The test is classed as cell-based. Particulars: Homo sapiens, 1 h, read-out: Cell IC50 Phospho-ERK. Here is the method:
as §13, §14, §15, §16, §17, §18, §19, §20, §21, §22, §23

Setting [3] is: RET-CCDC6 fusion, ATP 1 μM, 33P-ATP filter binding, read-out: Biochemical IC50 RET-CCDC6.
[4] abbreviates: RET(V804M) mutant, ATP 1 μM, 33P-ATP filter binding, read-out: Biochemical IC50 RET (V804M).
[5] abbreviates: wild-type RET kinase, ATP 1 μM, 33P-ATP filter binding, read-out: Biochemical IC50 RET.

Like-named read-outs stand apart in the source and are kept apart here.

The text below walks through data of patent US20220380366A1, “HETEROCYCLIC SULFOXIMINE COMPOUND AND INTERMEDIATE THEREOF, PREPARATION METHOD THEREFOR, AND APPLICATION THEREOF” (priority 2019, published 2022).

T2 sequence (P07949 29-1114 V804M): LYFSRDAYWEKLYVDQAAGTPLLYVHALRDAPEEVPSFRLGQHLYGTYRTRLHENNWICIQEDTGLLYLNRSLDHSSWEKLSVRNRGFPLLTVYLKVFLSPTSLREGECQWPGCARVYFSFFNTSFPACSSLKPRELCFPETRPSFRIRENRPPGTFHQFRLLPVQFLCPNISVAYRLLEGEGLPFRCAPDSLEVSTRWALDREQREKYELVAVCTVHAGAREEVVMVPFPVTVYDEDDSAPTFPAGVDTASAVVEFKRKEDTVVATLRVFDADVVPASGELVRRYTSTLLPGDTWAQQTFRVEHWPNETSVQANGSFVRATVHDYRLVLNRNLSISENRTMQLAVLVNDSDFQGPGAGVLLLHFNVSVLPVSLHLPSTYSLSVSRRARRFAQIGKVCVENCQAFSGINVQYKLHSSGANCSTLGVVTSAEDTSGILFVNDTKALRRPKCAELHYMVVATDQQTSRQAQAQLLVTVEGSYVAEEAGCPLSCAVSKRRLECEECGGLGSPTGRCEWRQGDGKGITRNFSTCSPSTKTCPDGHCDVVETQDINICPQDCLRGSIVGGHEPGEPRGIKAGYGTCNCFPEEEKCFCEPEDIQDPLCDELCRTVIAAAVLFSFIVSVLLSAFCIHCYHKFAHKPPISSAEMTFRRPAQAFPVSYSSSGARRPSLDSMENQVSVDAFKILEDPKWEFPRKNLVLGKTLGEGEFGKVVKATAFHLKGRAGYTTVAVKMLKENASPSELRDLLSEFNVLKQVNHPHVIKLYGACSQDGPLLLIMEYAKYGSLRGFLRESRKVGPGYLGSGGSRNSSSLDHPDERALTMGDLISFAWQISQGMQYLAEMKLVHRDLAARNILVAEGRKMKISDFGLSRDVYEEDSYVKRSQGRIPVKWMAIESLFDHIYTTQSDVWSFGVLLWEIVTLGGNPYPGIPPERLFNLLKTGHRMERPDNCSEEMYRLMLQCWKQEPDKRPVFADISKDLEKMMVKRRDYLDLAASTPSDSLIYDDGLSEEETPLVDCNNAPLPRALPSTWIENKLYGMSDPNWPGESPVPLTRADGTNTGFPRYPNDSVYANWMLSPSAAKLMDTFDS
T3 sequence (P07949 29-1114): as the sequence (P07949 29-1114 V804M) above, with M776V counted along it

A word on the IC50: it is the midpoint of a concentration-inhibition curve. On to `CC(C)(O)COc1cc(-c2ccc(N3CCS(=N)(=O)CC3)nc2)c2c(C#N)cnn2c1` [Ex. 2, 6-(2-hydroxy-2-methylpropoxy)-4-(6-(1-imino-1-oxothiomorpholinyl)pyridin-3-yl)pyrazolo[1,5-a]pyridine-3-carbonitrile], for which the IC50 at RET-CCDC6 (setting [3]) is 2.81 nM; at RET(V804M) mutant (setting [4]), 21.2 nM; on wild-type RET kinase (setting [5]) it was 4.23 nM.
The matching figures for `COc1ccc(N=S2(=O)CCN(c3ccc(-c4cc(OCC(C)(C)O)cn5ncc(C#N)c45)cn3)CC2)cn1` [Ex. 3, 6-(2-hydroxy-2-methylpropoxy)-4-(6-(1-((6-methoxypyridin-3-yl)imino)-1-oxothiomorpholinyl)pyridin-3-yl)pyrazolo[1,5-a]pyridine-3-carbonitrile]: 0.993 nM, 3.78 nM and 1.66 nM.
For `CC(C)CN=S1(=O)CCN(c2ccc(-c3cc(OCC(C)(C)O)cn4ncc(C#N)c34)cn2)CC1` [Ex. 4, 6-(2-hydroxy-2-methylpropoxy)-4-(6-(1-(isobutylimino)-1-oxothiomorpholinyl)pyridin-3-yl)pyrazolo[1,5-a]pyridine-3-carbonitrile], the IC50 on RET-CCDC6 (setting [3]) was 4.59 nM; at RET(V804M) mutant (setting [4]), 55.7 nM; at wild-type RET kinase (setting [5]) it was 6.74 nM.
In the case of `COc1ccc(CN=S2(=O)CCN(c3ccc(-c4cc(OCC(C)(C)O)cn5ncc(C#N)c45)cn3)CC2)cn1` [Ex. 5, 6-(2-hydroxy-2-methylpropoxy)-4-(6-(1-(((6-methoxypyridin-3-yl)methyl)imino)-1-oxothiomorpholinyl)pyridin-3-yl)pyrazolo[1,5-a]pyridine-3-carbonitrile], the IC50 on RET-CCDC6 (setting [3]) was found to be 2.09 nM; at RET(V804M) mutant (setting [4]), 17.9 nM; at wild-type RET kinase (setting [5]), 3.62 nM.
In the same order, the values of `CC(C)(O)COc1cc(-c2ccc(N3CCS(=O)(=NC4CCNCC4)CC3)nc2)c2c(C#N)cnn2c1` [Ex. 7, 6-(2-hydroxy-2-methylpropoxy)-4-(6-(1-oxo-1-(piperidin-4-ylimino)thiomorpholinyl)pyridin-3-yl)pyrazolo[1,5-a]pyridine-3-carbonitrile] are 12.6 nM, 165 nM and 18.1 nM.
In the same order, the values of `CC(C)(O)COc1cc(-c2ccc(N3CCC(N=S(C)(C)=O)CC3)nc2)c2c(C#N)cnn2c1` [Ex. 8, 4-(6-(4-((dimethyloxo-λ^4-sulfinyl)amino)piperidin-1-yl)pyridin-3-yl)-6-(2-hydroxy-2-methylpropoxy)pyrazolo[1,5-a]pyridine-3-carbonitrile] are 5.89 nM, 63.6 nM and 9.45 nM.
The matching figures for `CC(C)(O)COc1cc(-c2ccc(N3CCC(N=[S@@](C)(=O)c4ccccc4)CC3)nc2)c2c(C#N)cnn2c1` [Ex. 9, 4-(6-(4-(((S)—S-methyl-S-phenyl-oxo-λ^4-sulfinyl)amino)piperidin-1-yl)pyridin-3-yl)-6-(2-hydroxy-2-methylpropoxy)pyrazolo[1,5-a]pyridine-3-carbonitrile]: 8.14 nM, 138 nM and 14.2 nM.
With `CC(C)(O)COc1cc(-c2ccc(N3CCC(N=[S@](C)(=O)c4ccccc4)CC3)nc2)c2c(C#N)cnn2c1` [Ex. 10, 4-(6-(4-(((R)—S-methyl-S-phenyl-oxo-λ^4-sulfinyl)amino)piperidin-1-yl)pyridin-3-yl)-6-(2-hydroxy-2-methylpropoxy)pyrazolo[1,5-a]pyridine-3-carbonitrile], the IC50 was 4.59 nM on RET-CCDC6 (setting [3]), 36 nM at RET(V804M) mutant (setting [4]) and 6.18 nM on wild-type RET kinase (setting [5]).
For `Cn1cc(-c2cc(-c3ccc(N4CCS(=N)(=O)CC4)nc3)c3c(C#N)cnn3c2)cn1` [Ex. 12, 4-(6-(1-imino-1-oxothiomorpholinyl)pyridin-3-yl)-6-(1-methyl-1H-pyrazole-4-yl)pyrazolo[1,5-a]pyridine-3-carbonitrile], the 50% inhibitory concentration (IC50) is 0.523 nM at RET-CCDC6 (setting [3]); 11.5 nM in test [1] (LC-2-ad); 246 nM in test [2]; 5.55 nM on RET(V804M) mutant (setting [4]); 0.849 nM on wild-type RET kinase (setting [5]).
As to `Cn1cc(-c2cc(-c3ccc(N4CCC(N=[S@@](C)(=O)c5ccccc5)CC4)nc3)c3c(C#N)cnn3c2)cn1` [Ex. 17, 4-(6-(4-(((S)—S-methyl-S-phenyl-oxo-λ^4-sulfinyl)amino)piperidin-1-yl)pyridin-3-yl)-6-(1-methyl-1H-pyrazole-4-yl)pyrazolo[1,5-a]pyridine-3-carbonitrile], the results for the IC50 on RET-CCDC6 (setting [3]), at RET(V804M) mutant (setting [4]) and on wild-type RET kinase (setting [5]) were 0.776 nM, 10.6 nM and 1.49 nM, respectively.
The matching figures for `COc1ccc(N=S2(=O)CCN(c3ccc(-c4nc(-c5cnn(C)c5)cn5ncc(C#N)c45)cn3)CC2)cn1` [Ex. 22, 4-(6-(1-((6-methoxypyridin-3-yl)imino)-1-oxothiomorpholinyl)pyridin-3-yl)-6-(1-methyl-1H-pyrazole-4-yl)pyrazolo[1,5-a]pyrazine-3-carbonitrile]: 0.41 nM, 3.24 nM and 0.673 nM.
Turning to `Cn1cc(-c2cn3ncc(C#N)c3c(-c3ccc(N4CCC(N=S(C)(C)=O)CC4)nc3)n2)cn1` [Ex. 23, 4-(6-(4-((dimethyloxo-λ^4-sulfinyl)amino)piperidin-1-yl)pyridin-3-yl)-6-(1-methyl-1H-pyrazole-4-yl)pyrazolo[1,5-a]pyrazine-3-carbonitrile], the IC50 at RET-CCDC6 amounted to 2.16 nM; on RET(V804M) mutant it was 25 nM; on wild-type RET kinase, 4.09 nM.
Consider `Cn1cc(-c2cn3ncc(C#N)c3c(-c3ccc(N4CCC(N=[S@@](C)(=O)c5ccccc5)CC4)nc3)n2)cn1` [Ex. 24, 4-(6-(4-(((S)—S-methyl-S-phenyl-oxo-λ^4-sulfinyl)amino)piperidin-1-yl)pyridin-3-yl)-6-(1-methyl-1H-pyrazole-4-yl)pyrazolo[1,5-a]pyrazine-3-carbonitrile], for which the IC50 was determined as 1.93 nM on RET-CCDC6 (setting [3]), 26.3 nM at RET(V804M) mutant (setting [4]) and 4.06 nM at wild-type RET kinase (setting [5]).
With `COc1ccc(CN2C3CC2CN(c2ccc(-c4cc(OCC(C)(C)O)cn5ncc(C#N)c45)cn2)C3)cn1` [LOXO292, reference compound], the half-inhibitory concentration (IC50) is 6.08 nM in test [1] (LC-2/ad lung cancer cells, one hour treatment, sandwich ELISA) and > 1000 nM in test [2].
